Like-named read-outs stand apart in the source and are kept apart here.
What was measured:
mGluR4 = mGluR4 (UniProt Q14833); assay: mGluR4 potentiation assay (activity table; fluorescence plate reader, compound then EC20 agonist); assay type: cell-based; conditions: for % GluMax: maximum extent of potentiation; for EC50: potentiation of mGluR4, species of receptor not given
Procedure: The disclosed compounds and compositions can be evaluated for their ability to act as a potentiator of metabotropic glutamate receptor activity, in particular mGluR4 activity, by any suitable known methodology known in the art. For example, Chinese Hamster Ovary (CHO) cells transfected with human mGluR4 or HEK cells co-transfected with rat mGluR4 and the G-protein regulated Inwardly Rectifying Potassium channel (GIRK) were plated in clear bottom assay plates for assay in a Hamamatsu FDSS Fluorometric Plate Reader. The cells were loaded with either a Ca2+-sensitive fluorescent dye Fluo-4 or the thallium responsive dye BTC, AM and the plates were washed and placed into a suitablekinetic plate reader. For human mGluR4 assays, a fluorescence baseline was established for 3-5 seconds, the disclosed compounds were then added to the cells, and the response in cells was measured. Approximately two and a half minutes later, a concentration of mGluR4 orthosteric agonist (e.g. glutamate or L-AP4) eliciting approximately 20% (EC20) of the maximal agonist response was added to the cells, and the response was measured. Two minutes later, a concentration of mGluR4 agonist (e.g. glutamate or L-AP4) eliciting 80% (EC80) of the maximal agonist response was added to the cells, and the response was measured. For rat mGluR4/GIRK experiments, a baseline was established for approximately five seconds, disclosed compounds were added, and either an EC20 or EC80 concentration of agonist was added approximately two and one half minutes later. Potentiation of the agonist response of mGluR4 by the disclosed compounds was observed as an increase in response to the EC20 concentration of agonist in the presence of compound compared to the response to agonist in the absence of compound. Similarly, antagonism of the agonist response of mGluR4 by the disclosed compounds was observed as a decrease in response to the EC80 concentration of agonist in the presence of compound compared to the response to agonist in the absence of compound.
The above described assay operated in two modes. In the first mode, a range of concentrations of the disclosed compounds are added to cells, followed by a single fixed concentration of agonist. If the compound acts as a potentiatior, an EC50 value for potentiation and a maximum extent of potentiation by the compound at this concentration of agonist is determined by non-linear curve fitting. If the compound acts as a noncompetitive antagonist, an IC50 value is determined by non-linear curve fitting. In the second mode, several fixed concentrations of the disclosed compounds are added to various wells on a plate, followed by a range in concentrations of agonist for each concentration of disclosed compound. The EC50 values for the agonist at each concentration of compound are determined by non-linear curve fitting. A decrease in the EC50 value of the agonist with increasing concentrations of the sample compound (a leftward shift of the agonist concentration-response curve) is an indication of the degree of mGluR4 potentiation at a given concentration of the sample compound. A decrease in the maximal response of the agonist with increasing concentrations of the sample compounds, with or without a rightward shift in agonist potency, is an indication of the degree of noncompetitive antagonism at mGluR4. The second mode also indicates whether the sample compounds also affect the maximum response to mGluR4 to agonists.
These compounds are positive allosteric modulators (potentiators) of human and rat mGluR4 and were selective for mGluR4 compared to the other seven subtypes of metabotropic glutamate receptors.

[1] = intraperitoneal pharmacokinetics in male SD rats (plasma and brain); assay type: in vivo, rat; parameters: AUC(0-8) Brain: unit not given here; conditions: 10 mg/kg ip; for AUC(0-8) Brain / AUC(0-t): 0-8 h; for Log BB: brain/plasma
Procedure: FIG. 2 is a graph showing intraperitoneal pharmacokinetics of a compound of the present invention in male SD rats (N=3); Formulation: 10% tween 80 microsuspension; Dose: 10 mg/kg; Time points: 0.5 h, 1 h, 2 h, 4 h & 8 h; data are summarized in Table 1 and Table 2.
FIG. 3 is a graph showing intraperitoneal pharmacokinetics of a compound of the present invention in male SD rats (˜300 g); Dose:10 mg/kg, ip; Time points: 0.5 h, 1 h & 8 h (n=3); data are summarized in Table 1 and Table 2.
FIG. 4 is a graph showing intraperitoneal pharmacokinetics of a compound of the present invention in male SD rats (˜300 g); Dose:10 mg/kg, ip; Time points: 0.5 h, 1 h & 8 h (n=3); data are summarized in Table 1 and Table 2.
Additionally, certain exemplary disclosed compounds were evaluated for pharmacokinetic efficacy.

[2] = rat, brain, read-out: Elimination T1/2 Brain (converted)
[3] = rat, brain, read-out: Tmax Brain
[4] = rat, plasma, read-out: Elimination T1/2 Plasma (converted)
[5] = rat, plasma, read-out: Tmax Plasma

Compound	% GluMax (mGluR4)	EC50 (mGluR4)	other results
O=C(Nc1ccc(N2S(=O)(=O)c3ccccc3S2(=O)=O)cc1)c1ccccc1 [Example 1, N-(4-(1,1,3,3-tetraoxidobenzo[d][1,3,2]dithiazol-2-yl)phenyl)benzamide]	146%	203 nM	
O=C(Nc1ccc(N2S(=O)(=O)c3ccccc3S2(=O)=O)cc1)c1ccco1 [Example 2, N-(4-(1,1,3,3-tetraoxidobenzo[d][1,3,2]dithiazol-2-yl)phenyl)furan-2-carboxamide]	284%	50 nM	
O=C(Nc1ccc(N2S(=O)(=O)c3ccccc3S2(=O)=O)cc1)C1CCCCC1 [Example 3, N-(4-(1,1,3,3-tetraoxidobenzo[d][1,3,2]dithiazol-2-yl)phenyl)cyclohexanecarboxamide]	96%	128 nM	
O=C(Nc1ccc(N2S(=O)(=O)c3ccccc3S2(=O)=O)cc1)c1ccccn1 [Example 4, N-(4-(1,1,3,3-tetraoxidobenzo[d][1,3,2]dithiazol-2-yl)phenyl)picolinamide]	254%	38.1 nM	
O=C(Nc1ccc(N2S(=O)(=O)c3ccccc3S2(=O)=O)cc1)c1cccc(F)n1 [Example 5, 6-Fluoro-N-(4-(1,1,3,3-tetraoxidobenzo[d][1,3,2]dithiazol-2-yl)phenyl)picolinamide]	198%	179 nM	
O=C(Nc1ccc(N2S(=O)(=O)c3ccccc3S2(=O)=O)cc1)c1ccncn1 [Example 6, N-(4-(1,1,3,3-tetraoxidobenzo[d][1,3,2]dithiazol-2-yl)phenyl)pyrimidine-4-carboxamide]	247%	286 nM	
O=C(Nc1ccc(N2S(=O)(=O)c3ccccc3S2(=O)=O)cc1)c1nccs1 [Example 7, N-(4-(1,1,3,3-tetraoxidobenzo[d][1,3,2]dithiazol-2-yl)phenyl)thiazole-2-carboxamide]	216%	142 nM	
O=C(Nc1ccc(N2S(=O)(=O)c3ccccc3S2(=O)=O)cc1)c1ncccc1F [Example 8, 3-Fluoro-N-(4-(1,1,3,3-tetraoxidobenzo[d][1,3,2]dithiazol-2-yl)phenyl)picolinamide]	69%	49.6 nM	
O=C(Nc1ccc(N2S(=O)(=O)c3ccccc3S2(=O)=O)cc1)C1CCCCO1 (centres unmarked) [Example 9, N-(4-(1,1,3,3-tetraoxidobenzo[d][1,3,2]dithiazol-2-yl)phenyl)tetrahydro-2H-pyran-2-carboxamide]	166%	914 nM	
O=C(Nc1ccc(N2S(=O)(=O)c3ccccc3S2(=O)=O)cc1)c1cscn1 [Example 10, N-(4-(1,1,3,3-tetraoxidobenzo[d][1,3,2]dithiazol-2-yl)phenyl)thiazole-4-carboxamide]	231%	68.8 nM	
O=C(Nc1ccc(N2S(=O)(=O)c3ccccc3S2(=O)=O)cc1)c1ncc(F)cc1F [Example 11, 3,5-Difluoro-N-(4-(1,1,3,3-tetraoxidobenzo[d][1,3,2]dithiazol-2-yl)phenyl)picolinamide]	195%	1650 nM	
O=C(Nc1ccc(N2S(=O)(=O)c3ccccc3S2(=O)=O)cc1F)c1ccco1 [Example 12, N-(2-fluoro-4-(1,1,3,3-tetraoxidobenzo[d][1,3,2]dithiazol-2-yl)phenyl)furan-2-carboxamide]	125%	9130 nM	
O=C(Nc1ccc(N2S(=O)(=O)c3ccccc3S2(=O)=O)cc1F)c1ccccn1 [Example 13, N-(2-fluoro-4-(1,1,3,3-tetraoxidobenzo[d][1,3,2]dithiazol-2-yl)phenyl)picolinamide]	62%	739 nM	
O=C(Nc1ccccn1)c1ccc(N2S(=O)(=O)c3ccccc3S2(=O)=O)cc1 [Example 14, N-(pyridin-2-yl)-4-(1,1,3,3-tetraoxidobenzo[d][1,3,2]dithiazol-2-yl)benzamide]	39%	113 nM	
O=C(Nc1ccc(F)cn1)c1ccc(N2S(=O)(=O)c3ccccc3S2(=O)=O)cc1 [Example 15, N-(5-fluoropyridin-2-yl)-4-(1,1,3,3-tetraoxidobenzo[d][1,3,2]dithiazol-2-yl)benzamide]	84%	272 nM	
O=S1(=O)c2ccccc2S(=O)(=O)N1c1ccc(NCc2ccccn2)cc1 [Example 16, 2-(4-((pyridine-2-ylmethyl)amino)phenyl)benzo[d][1,3,2]dithiazole-1,1,3,3-tetraoxide]	161%	2140 nM	
O=S1(=O)c2ccccc2S(=O)(=O)N1c1ccc(NC2(c3ccccn3)CC2)cc1 [Example 17]	165%	134 nM	
O=S1(=O)c2ccccc2S(=O)(=O)N1c1ccc(Nc2ccccn2)nc1 [Example 18, 2-(6-(pyridin-2-ylamino)pyridin-3-yl)benzo[d][1,3,2]dithiazole 1,1,3,3-tetraoxide]	73%	5450 nM	
O=C(Nc1ccc(N2S(=O)(=O)c3ccccc3S2(=O)=O)cc1)C1CCCCC1 [drawing 138]			V/F [1]: 6.7 L; Cmax Brain ([1]; brain): 983.43 ± 188.76 ng/mL or g; AUC(0-8) Brain ([1]; brain): 6295.60 ± 876.30; half-life [1, 2]: 12.2 h; Tmax [1, 3]: 0.5 h; Log BB ([1]; rat): 0.26; Cmax ([1]; rat, plasma): 1930 ± 845 ng/mL; AUC(0-t) ([1]; rat, plasma): 3400 ± 2990 ng·h/mL; half-life [1, 4]: 1.67 h; Tmax [1, 5]: 0.5 h; CL/F ([1]; rat, plasma): 46.7 mL/min/kg
O=C(Nc1ccc(N2S(=O)(=O)c3ccccc3S2(=O)=O)cc1)c1ccccc1 [drawing 139]			V/F [1]: 5.2 L; Cmax Brain ([1]; brain): 775.51 ± 90.00 ng/mL or g; AUC(0-8) Brain ([1]; brain): 405.32 ± 98.82; Log BB [1]: −0.9; Tmax [1, 3]: 1 h; Cmax ([1]; rat, plasma): 1470 ± 41 ng/mL; AUC(0-t) ([1]; rat, plasma): 3280 ± 244 ng·h/mL; half-life [1, 4]: 1.21 h; Tmax [1, 5]: 1 h; CL/F ([1]; rat, plasma): 51.2 mL/min/kg
O=C(Nc1ccc(N2S(=O)(=O)c3ccccc3S2(=O)=O)cc1)c1ccco1 [drawing 140]			V/F [1]: 1.49 L; Cmax Brain ([1]; brain): 2842.81 ± 544.93 ng/mL or g; AUC(0-8) Brain ([1]; brain): 12937.04 ± 2079.74; Log BB [1]: −0.19; half-life [1, 2]: 3.79 h; Tmax [1, 3]: 1 h; Cmax ([1]; rat, plasma): 5690 ± 1360 ng/mL; AUC(0-t) ([1]; rat, plasma): 20500 ± 5180 ng·h/mL; half-life [1, 4]: 2.39 h; Tmax [1, 5]: 1 h; CL/F ([1]; rat, plasma): 7.16 mL/min/kg
